Experimental data as given in US20100160442A1, “FORMULATIONS FOR CANCER TREATMENT” (priority 2006, published 2010).
≈ marks a conversion by molar mass, not a printed value. Where “and” joins values, the source holds several entries; their conditions need not be identical. Equal values may be shown once.

Columns and labels:
[1] = Compounding studies: time for drug substance to dissolve in 25% HPBCD; assay type: physicochemical
Procedure: 1. 300 mg of BA was added to 30 ml of a 25% HPBCD (containing 0.6% saline) and mixed using a magnetic stirrer. The drug substance dissolved in 4 hours. This is deemed to be an unacceptably long time for a viable manufacturing process and it was decided to evaluate a procedure involving dissolving the drug substance directly in the HPBCD. 2. In a second study 500 mg of BA dissolved in a 50 ml of a 25% HPBCD vehicle (no saline) in approx 90 minutes. The dissolution rate of BA was deemed to be a more acceptable time and provides some prospect for a viable larger scale process. Further excipients could be added after the drug substance has been dissolved.

[2] = Saturated solubility of BA in self emulsifying lipid (SELF) samples, UV 320 nm; assay type: physicochemical
Procedure: Saturated Solubility Test for Liquid SELF Samples: 2 ml of each liquid SELF was measured into 8 ml screw cap glass bottle using a Finnpipette. Aliquots of 50 mg of the API were then added until the mixture appeared to be saturated. The mixtures were sonicated for 30 minutes, and then observed to see if saturation had been maintained. Aliquots of 25 mg of the API were further added to non-saturated samples while stirring; these were sonicated for a further 30 minutes. This process was repeated until saturation was attained and maintained after sonication.
The liquid samples were then placed in the Variomatic water bath at 25° C. and left to stir for two nights. Each of the SELF samples was purged with nitrogen gas after use to minimize oxidation.
The saturated liquid samples were centrifuged at a speed of 4000 rpm for 10 minutes at 25° C.
Saturated Solubility Test for Semi-Solid SELF Samples: Prior to dispensing, semi-solid lipids were melted in a dry oven at 60° C. The semi-solids were dispensed into screw cap bottles; aliquots of the API were added to attain and maintain saturation. The saturated semi-solids were left stirring at 60° C.
The following day the stirrer was switched off but heating was maintained at 60° C. for 1 hour. This was to allow the dispersed solid particles to sediment. 0.1 ml was taken from the top clear layer of each of the saturated semi-solid samples and diluted with acetonitrile.
UV Analysis: The saturated samples and the lipid vehicles were diluted with acetonitrile at the same ratio. The samples were diluted with acetonitrile to obtain an absorbance between 0.1 to 1. The absorbance of the diluted lipid vehicles were used as the baseline for the absorbance readings of the active sample. The diluted samples were scanned at a fixed wavelength of 320 nm. The concentration of the API was calculated using the E^11 value, derived from the API concentration in acetonitrile.
Saturated Solubility: Saturated solubility was carried out on the six SELF samples (Gattefosse) that were miscible with acetonitrile. These samples were stirred over two nights.
Saturated solubility of freshly prepared lipid samples: Saturated solubility was carried out on each of the freshly prepared semi-solid lipid samples as described above. The results in table 9-8 are based on equilibration of saturated samples over two nights.

- Time for drug substance to dissolve ([1]; 300 mg of BA in 30 ml of 25% HPBCD containing 0.6% saline, magnetic stirrer): 4 h
- Time for drug substance to dissolve ([1]; 500 mg of BA in 50 ml of 25% HPBCD vehicle (no saline)): approx 90 minutes
- Solubility Enhancement vs. water ([2]; SELF 27A): 1074
- Mean Conc. ([2]; SELF 27A (Gattefosse, semi-solid), after 2 nights): 215000 µg/mL
- Mean Conc. ([2]; SELF 27A (Gattefosse, semi-solid), after 2 nights, listed as API): 214730 µg/mL
- Solubility Enhancement vs. water ([2]; SELF 27B): 524
- Mean Conc. ([2]; SELF 27B (Gattefosse, semi-solid), after 2 nights): 105000 µg/mL
- Solubility Enhancement vs. water ([2]; SELF 27D): 699
- Mean Conc. ([2]; SELF 27D (Gattefosse, liquid), after 2 nights): 140000 µg/mL
- Solubility Enhancement vs. water ([2]; SELF 27E): 675 and 532
- Mean Conc. ([2]; SELF 27E (Gattefosse, liquid), after 2 nights): 107000 µg/mL
- Solubility Enhancement vs. water ([2]; SELF 27F): 804
- Mean Conc. ([2]; SELF 27F (Gattefosse, liquid), after 2 nights): 161000 µg/mL
- Solubility Enhancement vs. water ([2]; SELF 27G): 695
- Mean Conc. ([2]; SELF 27G (Gattefosse, semi-solid), after 2 nights): 139000 µg/mL
- Mean Conc. ([2]; Water): 200 µg/mL
- Mean Conc. ([2]; freshly prepared SELF F1, after 2 nights): 185000 µg/mL
- Mean Conc. ([2]; freshly prepared SELF F1, after 2 nights, listed as API): 184760 µg/mL
- Mean Conc. ([2]; freshly prepared SELF F3, after 2 nights): 87000 µg/mL
- Mean Conc. ([2]; freshly prepared SELF F4, after 2 nights): 42000 µg/mL
- Mean Conc. ([2]; freshly prepared SELF F5, after 2 nights): 75000 µg/mL
- Mean Conc. ([2]; freshly prepared SELF F6, after 2 nights): 76000 µg/mL
- Mean Conc. ([2]; freshly prepared SELF F7, after 2 nights): 135000 µg/mL
- solubility ([2]; water, read-out: Mean Conc.): 200 µg/mL (≈ 685 µM)
SMILES: NC(=O)c1ccc(I)c([N+](=O)[O-])c1 [BA, 4-iodo-3-nitrobenzamide]
